EC50 and melting point data for 32 molecules are collected here from patent US10370371B2, “Substituted pyrimidine Bmi-1 inhibitors” (PTC Therapeutics, Inc., priority 2013, dated 2019).

One series relates to Bmi-1 protein. Briefly: Sandwich ELISA Assay (Bmi-1 protein level in HT-1080 cells). The format is cell-based. In short, it runs like this: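 HT-1080 cells were treated with compounds (0.5% DMSO final) for 40-48 h at 37 °C. Lysates were assayed by sandwich ELISA: mouse anti-Bmi-1 capture, rabbit anti-Bmi-1 and HRP anti-rabbit detection, TMB read at OD450 (OD570 reference). Levels were quantified against a recombinant GST-Bmi-1 standard curve (125-8000 pg/mL).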
(In general: An ELISA detects its analyte on a solid surface through an enzyme-linked reagent.)

For orientation: EC50 means the concentration needed to bring the measured effect to its halfway point. Broadly, the melting point is the temperature of the solid-liquid transition. As to `Nc1cc(-n2c(C(F)F)nc3ccccc32)nc(Nc2ccc(OC(F)F)cc2)n1` [Cpd 88, N^2-[4-(difluoromethoxy)phenyl]-6-[2-(difluoromethyl)-1H-benzimidazol-1-yl]pyrimidine-2,4-diamine], the melting point was in the range of 114 to 115 °C. Further, the concentration giving a half-maximal response (EC50) with Bmi-1 protein was 1 to 10 nM.

The molecule `CC(C)c1nc2ccccc2n1-c1cc(N)nc(Nc2ccc(OC(F)F)cc2)n1` [Cpd 89, N^2-[4-(difluoromethoxy)phenyl]-6-[2-(propan-2-yl)-1H-benzimidazol-1-yl]pyrimidine-2,4-diamine] came in with a melting point of 184 to 187 °C. This molecule came in with an EC50 in the series on Bmi-1 protein of 10 to 100 nM.

`Nc1cc(-n2c(C3CC3)nc3cc(F)ccc32)nc(Nc2ccc(C(F)(F)F)cc2)n1` [Cpd 103, 6-(2-cyclopropyl-5-fluoro-1H-benzimidazol-1-yl)-N^2-[4-(trifluoromethyl)phenyl]pyrimidine-2,4-diamine] yielded a melting point of 237 to 238 °C. The molecule also registered an EC50 in the series on Bmi-1 protein of 10 to 100 nM.

On to `Cc1nc2cc(F)ccc2n1-c1cc(N)nc(Nc2ccc(OC(F)F)c(F)c2)n1` [Cpd 105, N^2-[4-(difluoromethoxy)-3-fluorophenyl]-6-(5-fluoro-2-methyl-1H-benzimidazol-1-yl)pyrimidine-2,4-diamine], for which the melting point was 172 to 173 °C. In the series on Bmi-1 protein, this molecule displayed an EC50 of 10 to 100 nM.

`COc1ccn2nc(C3CC3)c(-c3cc(N)nc(Nc4ccc(C(F)(F)F)cc4)n3)c2c1` [Cpd 106, 6-(2-cyclopropyl-5-methoxypyrazolo[1,5-a]pyridin-3-yl)-N^2-[4-(trifluoromethyl)phenyl]pyrimidine-2,4-diamine] returned a melting point of 172 to 174 °C. This molecule came in with an EC50 with Bmi-1 protein of 100 to 3000 nM.

`CCc1nn2ccc(F)cc2c1-c1cc(N)nc(Nc2ccc(C(F)(F)F)cc2)n1` [Cpd 111, 6-(2-ethyl-5-fluoropyrazolo[1,5-a]pyridin-3-yl)-N^2-[4-(trifluoromethyl)phenyl]pyrimidine-2,4-diamine] displayed a melting point of 153 to 157 °C. The EC50 in the series on Bmi-1 protein was in the range of 10 to 100 nM.

As to `Cc1nn2c(=O)n(C)c(C)cc2c1-c1cc(N)nc(Nc2ccc(C(F)(F)F)cc2)n1` [Cpd 117, 3-(6-amino-2-{[4-(trifluoromethyl)phenyl]amino}pyrimidin-4-yl)-2,5,6-trimethylpyrazolo[1,5-c]pyrimidin-7(6H)-one], the melting point lay in the range of 270 to 273 °C. The EC50 in the series on Bmi-1 protein lay within 100 to 3000 nM.

Take `Nc1cc(-c2c(C3CC3)nn3ccccc23)nc(Nc2ccc(C(F)(F)F)cc2)n1` [Cpd 126, 6-(2-cyclopropylpyrazolo[1,5-a]pyridin-3-yl)-N^2-[4-(trifluoromethyl)phenyl]pyrimidine-2,4-diamine]: the melting point is 181 to 183 °C. For the same molecule, the EC50 in the series with Bmi-1 protein fell in the range of 100 to 3000 nM.

Turning to `COc1ccc(Nc2nc(N)cc(-n3c(C)nc4ccccc43)n2)cc1` [Cpd 129, N^2-(4-methoxyphenyl)-6-(2-methyl-1H-benzimidazol-1-yl)pyrimidine-2,4-diamine], the melting point lay in the range of 149 to 150 °C. In addition, in the series on Bmi-1 protein, the EC50 is no more than 1 nM.

Turning to `Cc1nc2ccccc2n1-c1cc(N)nc(Nc2ccc3c(c2)OCO3)n1` [Cpd 130, N^2-(1,3-benzodioxol-5-yl)-6-(2-methyl-1H-benzimidazol-1-yl)pyrimidine-2,4-diamine], the melting point fell in the range of 118 to 119 °C. Moreover, the EC50 with Bmi-1 protein was in the range of 1 to 10 nM.

For `Cc1ccc(Nc2nc(N)cc(-n3c(C)nc4ccc(F)cc43)n2)cc1` [Cpd 134, 6-(6-fluoro-2-methyl-1H-benzimidazol-1-yl)-N^2-(4-methylphenyl)pyrimidine-2,4-diamine], the melting point was in the range of 118 to 120 °C. Also, in the series with Bmi-1 protein, the EC50 lay in the range of 1 to 10 nM.

The molecule `Cc1nc2ccc(F)cc2n1-c1cc(N)nc(Nc2ccc(Cl)cc2)n1` [Cpd 135, N^2-(4-chlorophenyl)-6-(6-fluoro-2-methyl-1H-benzimidazol-1-yl)pyrimidine-2,4-diamine] registered a melting point of 149 to 151 °C. In the series on Bmi-1 protein, this molecule displayed an EC50 of 10 to 100 nM.

The molecule `Cc1nc2ccc(F)cc2n1-c1cc(N)nc(Nc2ccc(N(C)C)cc2)n1` [Cpd 136, N^2-[4-(dimethylamino)phenyl]-6-(6-fluoro-2-methyl-1H-benzimidazol-1-yl)pyrimidine-2,4-diamine] gave a melting point of 232 to 235 °C. The molecule further registered an EC50 in the series on Bmi-1 protein of 1 to 10 nM.

In turn, `Cc1nc2ccc(F)cc2n1-c1cc(N)nc(Nc2ccc(C#N)cc2)n1` [Cpd 137, 4-{[4-amino-6-(6-fluoro-2-methyl-1H-benzimidazol-1-yl)pyrimidin-2-yl]amino}benzonitrile] had a melting point of 183 to 185 °C. Besides, the concentration giving a half-maximal response (EC50) with Bmi-1 protein is 100 to 3000 nM.

For the molecule `Cc1nc2ccc(F)cc2n1-c1cc(N)nc(Nc2cccc(F)c2)n1` [Cpd 138, 6-(6-fluoro-2-methyl-1H-benzimidazol-1-yl)-N^2-(3-fluorophenyl)pyrimidine-2,4-diamine], the melting point was 239 to 241 °C. This molecule came in with an EC50 with Bmi-1 protein of 100 to 3000 nM.

As for `Cc1cccc(Nc2nc(N)cc(-n3c(C)nc4ccc(F)cc43)n2)c1` [Cpd 139, 6-(6-fluoro-2-methyl-1H-benzimidazol-1-yl)-N^2-(3-methylphenyl)pyrimidine-2,4-diamine], the melting point was 156 to 158 °C. Also, the EC50 in the series on Bmi-1 protein fell in the range of 100 to 3000 nM.

`COc1cccc(Nc2nc(N)cc(-n3c(C)nc4ccc(F)cc43)n2)c1` [Cpd 140, 6-(6-fluoro-2-methyl-1H-benzimidazol-1-yl)-N^2-(3-methoxyphenyl)pyrimidine-2,4-diamine] came in with a melting point of 127 to 129 °C. This molecule showed an EC50 in the series on Bmi-1 protein of 100 to 3000 nM.

For the molecule `Cc1nc2ccc(F)cc2n1-c1cc(N)nc(Nc2cccc(Cl)c2)n1` [Cpd 141, N^2-(3-chlorophenyl)-6-(6-fluoro-2-methyl-1H-benzimidazol-1-yl)pyrimidine-2,4-diamine], the melting point is 211 to 213 °C. Further, in the series with Bmi-1 protein, the EC50 lay within 100 to 3000 nM.

In turn, `COc1ccc(Nc2nc(N)cc(-n3c(C)nc4ccc(F)cc43)n2)cc1F` [Cpd 142, N^2-(3-fluoro-4-methoxyphenyl)-6-(6-fluoro-2-methyl-1H-benzimidazol-1-yl)pyrimidine-2,4-diamine] came in with a melting point of 166 to 167 °C. The concentration for a half-maximal effect (EC50) with Bmi-1 protein fell in the range of 1 to 10 nM.

As for `Cc1nc2ccc(F)cc2n1-c1cc(N)nc(Nc2ccccc2)n1` [Cpd 143, 6-(6-fluoro-2-methyl-1H-benzimidazol-1-yl)-N^2-phenylpyrimidine-2,4-diamine], the melting point fell in the range of 158 to 161 °C. For the same molecule, in the series on Bmi-1 protein, the EC50 fell in the range of 100 to 3000 nM.

In turn, `COc1ccc(Nc2nc(N)cc(-n3c(C)nc4ccccc43)n2)cc1F` [Cpd 148, N^2-(3-fluoro-4-methoxyphenyl)-6-(2-methyl-1H-benzimidazol-1-yl)pyrimidine-2,4-diamine] gave a melting point of 186 to 187 °C. Also, the EC50 in the series on Bmi-1 protein is 1 to 10 nM.

For the molecule `CCc1nc2ccccc2n1-c1cc(N)nc(Nc2ccc(Cl)cc2)n1` [Cpd 150, N^2-(4-chlorophenyl)-6-(2-ethyl-1H-benzimidazol-1-yl)pyrimidine-2,4-diamine], the melting point was 172 to 173 °C. Further, the concentration for a half-maximal effect (EC50) in the series on Bmi-1 protein fell in the range of 1 to 10 nM.

Regarding `CCc1nc2ccccc2n1-c1cc(N)nc(Nc2ccc(OC)cc2)n1` [Cpd 151, 6-(2-ethyl-1H-benzimidazol-1-yl)-N^2-(4-methoxyphenyl)pyrimidine-2,4-diamine], the melting point is 144 to 145 °C. The same molecule registered an EC50 in the series with Bmi-1 protein of 1 to 10 nM.

`CCc1nc2ccccc2n1-c1cc(N)nc(Nc2ccccc2C)n1` [Cpd 152, 6-(2-ethyl-1H-benzimidazol-1-yl)-N^2-(2-methylphenyl)pyrimidine-2,4-diamine] gave a melting point of 119 to 120 °C. In the series on Bmi-1 protein, this molecule returned an EC50 of 100 to 3000 nM.

`CCc1nc2ccccc2n1-c1cc(N)nc(Nc2ccc3c(c2)OCO3)n1` [Cpd 154, N^2-(1,3-benzodioxol-5-yl)-6-(2-ethyl-1H-benzimidazol-1-yl)pyrimidine-2,4-diamine] displayed a melting point of 119 to 121 °C. The molecule also had an EC50 in the series on Bmi-1 protein of 10 to 100 nM.

In the case of `CCc1nc2ccccc2n1-c1cc(N)nc(Nc2ccc(OC)c(F)c2)n1` [Cpd 155, 6-(2-ethyl-1H-benzimidazol-1-yl)-N^2-(3-fluoro-4-methoxyphenyl)pyrimidine-2,4-diamine], the melting point is 104 to 106 °C. Besides, the EC50 with Bmi-1 protein was 1 to 10 nM.

`CCc1nc2ccccc2n1-c1cc(N)nc(Nc2ccc(OC)c(Cl)c2)n1` [Cpd 156, N^2-(3-chloro-4-methoxyphenyl)-6-(2-ethyl-1H-benzimidazol-1-yl)pyrimidine-2,4-diamine] displayed a melting point of 100 to 103 °C. In addition, the EC50 in the series on Bmi-1 protein lay within 10 to 100 nM.

Turning to `COc1ccc(Nc2nc(N)cc(-n3c(C)nc4ccccc43)n2)cn1` [Cpd 157, N^2-(6-methoxypyridin-3-yl)-6-(2-methyl-1H-benzimidazol-1-yl)pyrimidine-2,4-diamine], the melting point was in the range of 104 to 106 °C. The EC50 in the series on Bmi-1 protein lay within 10 to 100 nM.

The molecule `CCc1nc2ccc(F)cc2n1-c1cc(N)nc(Nc2ccc(Cl)cc2)n1` [Cpd 158, N^2-(4-chlorophenyl)-6-(2-ethyl-6-fluoro-1H-benzimidazol-1-yl)pyrimidine-2,4-diamine] had a melting point of 185 to 187 °C. In the series with Bmi-1 protein, this molecule yielded an EC50 of 1 to 10 nM.

Take `CCc1nc2ccc(F)cc2n1-c1cc(N)nc(Nc2ccccc2)n1` [Cpd 159, 6-(2-ethyl-6-fluoro-1H-benzimidazol-1-yl)-N^2-phenylpyrimidine-2,4-diamine]: the melting point lay within 160 to 162 °C. The same molecule showed an EC50 in the series with Bmi-1 protein of 100 to 3000 nM.

Molecule `CCc1nc2ccc(F)cc2n1-c1cc(N)nc(Nc2ccc(C)cc2)n1` [Cpd 160, 6-(2-ethyl-6-fluoro-1H-benzimidazol-1-yl)-N^2-(4-methylphenyl)pyrimidine-2,4-diamine] had a melting point of 187 to 189 °C. The molecule also returned a concentration giving a half-maximal response (EC50) with Bmi-1 protein of 1 to 10 nM.

`CCc1nc2ccc(F)cc2n1-c1cc(N)nc(Nc2ccc(OC)cc2)n1` [Cpd 161, 6-(2-ethyl-6-fluoro-1H-benzimidazol-1-yl)-N^2-(4-methoxyphenyl)pyrimidine-2,4-diamine] yielded a melting point of 166 to 168 °C. Also, in the series on Bmi-1 protein, the EC50 lay within 1 to 10 nM.
